# Results reported in US10335400B2, “Treatment of tauopathies with mGluR5 antagonists” (priority 2014, dated 2019).
# “Also recorded” adds a separate entry of the source.
# Assays:
# tau = assay: Tau phosphorylation (Western blots) in metabolically active rat brain slices; assay type: cell-based; settings: rat brain slices; for BMAA-induced tau hyperphosphorylation at the 12E8 site: 30 min preincubation
# Experimental: (§1) Male Wistar rats (Charles River Laboratories), 2-3 months old, were anesthetized by i.p. injection with 50 mg/kg Nembutal. The animals were decapitated when deeply anesthetized. The brains were removed immediately and cooled in ice-cold (4° C.) oxygenated artificial cerebrospinal fluid (aCSF) consisting of 126 mM NaCl, 3.5 mM KCl, 1.2 mM NaH2PO4, 1.3 mM MgCl2, 2 mM CaCl2, 11 mM D(+) glucose, and 25 mM NaHCO3 (pH 7.4) for 7-8 min. Each brain then was divided sagittally, and 400-μm-thick coronal slices were made with a Camden Vibraslicer (WP, Inc.). The slices were transferred into a chamber containing the oxygenated aCSF and were incubated at 33° C. for 2 h in the presence or absence of 1 mM, β-N ? methylamino-L-alanine (BMAA) dissolved in 10 mM NaHCO3 (Sigma). The oxygenation of the aCSF was carried out by bubbling the solution with a mixture of 95% O2 and 5% CO2 during the entire procedure. At the end of incubation, the brain slices were homogenized with homogenizing buffer [50 mM Tris·HCl (pH 7.4), 8.5% (wt/vol) sucrose, 2 mM EDTA, 2 mM EGTA, 10 mM (3-mercaptoethanol, 5 mM benzamidine, 0.5 mM 4-(2-Aminoethyl) benzenesulfonyl fluoride hydrochloride (AEBSF), 4 μg/mL pepstatin A, and 10 μg/mL each of aprotinin and leupepin] at a ratio of 9.0 mL buffer/1.0 g tissue slices. The homogenates were divided into two parts. One part was centrifuged at 16,000×g for 10 min, and the resulting supernatant was used to assay protein phosphatase 2A (PP2A) activity. Into the other half, an equal volume of phosphatase-inhibitor mixture (20 mM 3-glycerophosphate, 2 mM Na3VO4, and 100 mM NaF) was added immediately, and the samples were used for Western blots.
# Protein was fractionated by 10% SDS/PAGE, transferred to PVDF membrane, and then blocked with 5% skim milk for 1 h at room temperature. The membrane was probed with anti-IPP2A (5G6, 1:1, 500) (7), anti-I2P2A (10E7, 1:1, 600) (7), anti-tau ˜92e; 1:5,000) (8), anti-tau (R134d; 1:5 000) (9), anti-tau pSer^262/^356 (12E8; 1:500) (10, anti-tau pSer^199, anti-tau pThr^205, anti-tau pThr^212, and pSer^396 (1:1,000) (Biosource), anti-GAPDH (1:2,000) (Santa Cruz Biotechnology), anti-PP2Ac (1:10 000) (BD Transduction Lab), anti pY^307-PP2A and anti-DML^309-PP2A (1:1,000) (Millipore), anti-GSK-3(α/β), anti-pS^9-GSK-3 β, anti-ERK1/2, anti-pT^202/Y^204-ERK1/2, anti-MEK1/2, anti-p9^17/221-MEK1/2, anti-CAMKII, anti-pT^286-CAMKII, anti-p70 S6 kinase, anti-pT^389-p70 S6 kinase, anti-SAPK/JNK, and anti-pT^183/Y^185-SAPK/JNK (1:1,000) (Cell Signaling Technology). The membrane then was incubated with HRP-conjugated secondary antibody (Jackson ImmunoResearch). The protein bands were detected with the enhanced chemiluminescence reagents (Thermo Scientific). Band intensity was measured by Multi-Gauge V3 software (Fuji Photo Film).
# PP2A = PP2A activity (phosphatase ELISA) in rat brain slices; assay type: cell-based; settings: 30 min pretreatment, BMAA 1 mM 2 h, rat brain slices
# Experimental: as §1
# mGluR5-PP2A complex = biological target: T1, mGluR5-PP2A complex (Mus musculus, UniProt Q3UVX5); assay: Coimmunoprecipitation of PP2Ac with mGluR5 in primary neurons; assay type: cell-based
# T1 construct: endogenous in cells; host or cells: mouse primary hippocampal neuronal cultures
# T1 sequence (Q3UVX5 19-1203, one chain of several): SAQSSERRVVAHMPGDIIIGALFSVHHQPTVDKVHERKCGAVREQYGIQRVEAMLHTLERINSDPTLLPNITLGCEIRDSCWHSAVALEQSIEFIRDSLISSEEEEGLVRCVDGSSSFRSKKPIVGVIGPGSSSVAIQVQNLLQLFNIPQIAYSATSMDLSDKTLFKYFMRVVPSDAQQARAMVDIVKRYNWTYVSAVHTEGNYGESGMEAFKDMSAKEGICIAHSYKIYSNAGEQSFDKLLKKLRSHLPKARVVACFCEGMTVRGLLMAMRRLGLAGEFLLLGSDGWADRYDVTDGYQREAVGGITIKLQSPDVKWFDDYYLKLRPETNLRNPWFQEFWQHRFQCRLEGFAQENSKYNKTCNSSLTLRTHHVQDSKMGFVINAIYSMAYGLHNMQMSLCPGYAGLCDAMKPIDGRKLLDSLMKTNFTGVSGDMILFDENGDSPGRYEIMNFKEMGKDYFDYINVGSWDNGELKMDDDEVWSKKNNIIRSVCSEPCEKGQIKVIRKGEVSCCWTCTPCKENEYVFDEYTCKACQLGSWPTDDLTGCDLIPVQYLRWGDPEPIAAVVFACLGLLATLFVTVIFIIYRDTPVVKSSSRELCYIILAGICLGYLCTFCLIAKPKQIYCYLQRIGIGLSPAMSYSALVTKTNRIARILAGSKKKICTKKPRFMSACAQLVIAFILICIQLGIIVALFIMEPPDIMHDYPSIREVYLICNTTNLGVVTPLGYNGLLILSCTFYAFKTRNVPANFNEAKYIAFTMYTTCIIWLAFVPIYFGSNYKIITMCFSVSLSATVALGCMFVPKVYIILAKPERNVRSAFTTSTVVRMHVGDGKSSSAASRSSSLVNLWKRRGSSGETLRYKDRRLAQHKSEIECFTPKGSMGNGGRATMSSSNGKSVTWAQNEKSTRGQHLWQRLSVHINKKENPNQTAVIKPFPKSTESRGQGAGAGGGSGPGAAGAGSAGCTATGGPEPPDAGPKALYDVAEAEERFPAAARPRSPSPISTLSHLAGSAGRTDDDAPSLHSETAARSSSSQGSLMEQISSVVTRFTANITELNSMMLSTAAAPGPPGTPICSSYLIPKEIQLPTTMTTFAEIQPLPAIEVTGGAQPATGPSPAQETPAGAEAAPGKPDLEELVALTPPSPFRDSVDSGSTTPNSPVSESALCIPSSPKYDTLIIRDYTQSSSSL
# Experimental: Mouse hippocampal cell proteins were prepared with low-stringency lysis buffer [50 mM Hepes (pH 7.4), 10% (vol/vol) glycerol, 1.5 mM MgCl2, 5 mM NaF, 1 mM Na3VO4, 1 mM EDTA, 1 mM EGTA, 1% Nonidet P-40, 5 mM AEBSF, 10 μg/mL aprotinin, leupeptin, pepstatin] and were homogenized by several freeze-thaw cycles followed by water bath sonication. The homogenate was centrifuged at 14,000×g at 4° C. for 15 min. For transfection experiments with vector (DsRed) and with DsRed-PP2A catalytic subunit (PP2Ac), primary neurons were processed in a similar manner. The supernatants then were used for immunoprecipitation with mouse anti-PP2A (1D6; Millipore) followed by incubation with protein G-Sepharose (Thermo Scientific). The Western blots of immunoprecipitates were probed with rabbit anti-mGluR5 (Millipore) and rabbit anti-PP2Ac [R123d] (FIG. 55).
# ERK1/2 = ERK1/2 phosphorylation in primary neurons treated with okadaic acid; assay type: cell-based, mouse; settings: okadaic acid 10-100 nM, 30 min
# Experimental: FIGS. 11A and 11B are images showing the inhibition of PP2A induces ERK1/2 phosphorylation. Primary neurons were treated with the PP2A inhibitor okadaic acid (OA, 10-100 nM) for 30 min and were processed for ERK1/2 analysis. (A) Representative Western blots showing phosphorylation of ERK1/2. (B) Quantitative analysis of pERK1/2 after normalization with total ERK1/2. Data are expressed as mean±SEM. *P<0.05; **P<0.01.
# Protein was fractionated by 10% SDS/PAGE, transferred to PVDF membrane, and then blocked with 5% skim milk for 1 h at room temperature. […] The protein bands were detected with the enhanced chemiluminescence reagents (Thermo Scientific). Band intensity was measured by Multi-Gauge V3 software (Fuji Photo Film).
compound,measurement,setting,value
"CCCCCCCCCCCCC/C=C/[C@@H](O)[C@@H](N)CO [DES, D-Erythro-S]",BMAA-induced tau hyperphosphorylation,"tau; DES 15 nM pretreatment, BMAA 1 mM 2 h",blocked; also recorded: entirely prevented
"Cc1cccc(C#Cc2ccccc2)n1 [MPEP, 2-methyl-6-(phenylethynyl)pyridine]",BMAA induced decrease in PP2A activity blocked by pretreatment,PP2A; MPEP 50 μM,blocked completely
same,BMAA-induced tau hyperphosphorylation at the 12E8 site,"tau; 50 μM MPEP, BMAA 1 mM 2 h",significantly blocked
same,BMAA-induced dissociation of PP2A from mGluR5,mGluR5-PP2A complex,completely blocked
C=C1[C@@H](O)[C@@H]2O[C@]3(CC[C@H](/C=C/[C@@H](C)[C@@H]4CC(C)=C[C@@]5(O[C@H](C[C@@](C)(O)C(=O)O)CC[C@H]5O)O4)O3)CC[C@H]2O[C@@H]1[C@@H](O)C[C@H](C)[C@H]1O[C@@]2(CCCCO2)CC[C@H]1C [okadaic acid],ERK1/2 phosphorylation,ERK1/2,up-regulates
"N#Cc1cc2c(cc1[N+](=O)[O-])=NC(=O)C(=O)N=2 [CNQX, 6-cyano-7-nitroquinoxaline-2,3-dione]",BMAA induced decrease in PP2A activity blocked by pretreatment,PP2A; CNQX 20 μM,not
same,BMAA-induced tau hyperphosphorylation at the 12E8 site,"tau; CNQX 20 μM alone, BMAA 1 mM 2 h",no significant change
CC(C)(C)n1nc(-c2ccc(Cl)cc2)c2c(N)ncnc21 [PP2],BMAA-induced tau hyperphosphorylation,"tau; PP2 10 μM, 30 min before BMAA",blocked; also recorded: significantly attenuated
